Reference: patent US20160193216A1 (Nimbus Iris, Inc., priority 2012, published 2016)
Like-named read-outs stand apart in the source and are kept apart here.

Assays:
THP-1 cells = experiment: LPS induced cytokine (TNFα and IL8) production assay in THP-1 cells; type: cell-based; conditions: Homo sapiens, 300 ng/mL LPS
Description: Cytokine Production Assay
Provided compounds were also assayed in an LPS (Lipopolysacharide) or R848 (TLR-7 agonist) induced cytokine (TNFα and IL8) production assay in THP-1 cells, human peripheral blood mononuclear cells (hPBMC), and whole blood. The exemplary protocol for this assay in THP-1 cells was as follows below.
THP-1 cells from ATCC (TIB-202) were cultured in RPMI Medium 1640 (Invitrogen, Cat No. A10491-01), 10% fetal bovine serum (Invitrogen, Cat No. 10099141, Lot No. 8172882) containing 100 U/mL Penicillin, 100 μg/mL streptomycin (Invitrogen, Cat No. 15140-122), and 50 uM 2-Mercaptoethanol (Invitrogen, Cat No. 21985023). LPS-EK ultra pure (Invivogen, Cat No. tlrl-peklps) was used to induce IL8 and TNFα production, that was detected in the cell culture supernatant by IL8 HTRF kit (Cisbio, Cat No. 62IL8PEB) and TNFα HTRF kit (Cisbio, Cat No. 62TNFPEB), as per manufacturer instructions. Cells were cultured in 96 well assay plates at 100,000 cells per well, and compounds diluted in final 0.3% DMSO were pre-incubated with cells for 1 hour prior to stimulation with 300 ng/mL LPS. Cytokine production in cell supernatant was measured at 5 hours for TNFα and IL8 production, and for 16 hours for IL8 production and assessment of cell viability.
The compound numbers correspond to the compound numbers in Table 1. […] “NA” stands for “not assayed.”

IRAK4 = molecular target: T1, IRAK4 (Homo sapiens, UniProt Q9NWZ3); experiment: IRAK-4 activity inhibition assay (Caliper); type: biochemical; conditions: 37 μM ATP, 3.5 nM IRAK4
T1 sequence (Q9NWZ3 1-460): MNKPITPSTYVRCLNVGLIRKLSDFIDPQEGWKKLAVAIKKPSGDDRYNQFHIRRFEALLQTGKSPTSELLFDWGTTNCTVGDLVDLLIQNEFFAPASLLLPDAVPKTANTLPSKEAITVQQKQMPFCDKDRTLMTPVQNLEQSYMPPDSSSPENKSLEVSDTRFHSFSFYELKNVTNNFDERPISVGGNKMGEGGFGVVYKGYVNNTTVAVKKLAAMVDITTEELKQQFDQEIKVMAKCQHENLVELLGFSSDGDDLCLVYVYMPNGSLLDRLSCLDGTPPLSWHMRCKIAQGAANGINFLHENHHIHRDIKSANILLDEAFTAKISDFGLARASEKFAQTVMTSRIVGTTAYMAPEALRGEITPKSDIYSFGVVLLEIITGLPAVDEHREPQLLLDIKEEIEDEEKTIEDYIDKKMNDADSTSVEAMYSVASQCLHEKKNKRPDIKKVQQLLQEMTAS

Row | SMILES | IC50 (THP-1 cells; read-out: IL8 production IC50) [µM] | IC50 (THP-1 cells; read-out: TNFα production IC50) [µM] | IC50 (IRAK4) [µM]
1 | NC(=O)[C@@H](O)C[C@H]1CCc2sc3ncnc(O[C@H]4CC[C@H](N5CCCCC5)CC4)c3c21 [Compound I-217, (S)-2-hydroxy-3-((R)-4-(((1r,4R)-4-(piperidin-1-yl)cyclohexyl)oxy)-6,7-dihydro-5H-cyclopenta[4,5]thieno[2,3-d]pyrimidin-5-yl)propanamide] | ≤ 0.5 | ≤ 0.5 | < 5
2 | CC[C@@H](O)C[C@H]1CCc2sc3ncnc(O[C@H]4CC[C@H](N(C)CC(=O)N5CCCC5)CC4)c3c21 [Compound I-71, 2-[(4-[[(3R)-3-[(2R)-2-hydroxybutyl]-7-thia-9,11-diazatricyclo[6.4.0.0[2,6]]dodeca-1(8),2(6),9,11-tetraen-12-yl]oxy]cyclohexyl)(methyl)amino]-1-(pyrrolidin-1-yl)ethan-1-one] | 1 to 5 | 0.5 to 1 | < 5
3 | NC(=O)C(O)C[C@H]1CCc2sc3ncnc(O[C@H]4CC[C@H](N5CCOCC5)CC4)c3c21 (mixture of isomers) [Compound I-87, 2-hydroxy-3-((R)-4-(((1r,4R)-4-morpholinocyclohexyl)oxy)-6,7-dihydro-5H-cyclopenta[4,5]thieno[2,3-d]pyrimidin-5-yl)propanamide] | ≤ 0.5 | ≤ 0.5 | –
4 | CN(C)[C@H]1CC[C@H](Oc2nc(Nc3ccccc3)nc3sc4c(c23)C(CC(N)=O)CC4)CC1 (some centres unmarked) [Compound I-204, 2-(12-[[4-(dimethylamino)cyclohexyl]oxy]-10-(phenylamino)-7-thia-9, 11-diazatricyclo[6.4.0.0̂[2,6]]dodeca-1(12),2(6),8, 10-tetraen-3-yl)acetamide] | 1 to 5 | 0.5 to 1 | –
5 | NC(=O)[C@H](O)C[C@H]1CCc2sc3ncnc(O[C@H]4CC[C@H](N5CCOCC5)CC4)c3c21 [Compound I-93, (R)-2-hydroxy-3-((R)-4-(((1r,4R)-4-morpholinocyclohexyl)oxy)-6,7-dihydro-5H-cyclopenta[4,5]thieno[2,3-d]pyrimidin-5-yl)propanamide] | 1 to 5 | 1 to 5 | –
6 | Cn1cc(Nc2nc(O[C@H]3CC[C@H](N(C)C)CC3)c3c4c(sc3n2)CCC4CC(N)=O)cn1 (stereo in doubt) [Compound I-222, 2-[(3R)-12-[[4-(dimethylamino)cyclohexyl]oxy]-10-[(1-methyl-1H-pyrazol-4-yl)amino]-7-thia-9, 11-diazatricyclo[6.4.0.0[2,6]]dodeca-1(8),2(6),9,11-tetraen-3-yl]acetamide] | ≥ 5 | ≥ 5 | –
7 | CN(C)[C@H]1CC[C@H](Oc2ncnc3sc4c(c23)[C@H](CC(=O)Nc2ccc(F)cn2)CC4)CC1 [Compound I-38, 2-[(3S)-12-[[4-(dimethylamino)cyclohexyl]oxy]-7-thia-9,11-diazatricyclo[6.4.0.0[2,6]]dodeca-1(8),2(6),9,11-tetraen-3-yl]-N-(5-fluoropyridin-2-yl)acetamide] | – | – | 20 to 50
8 | CN(C)[C@H]1CC[C@H](Oc2ncnc3sc4c(c23)[C@@H](COCC(N)=O)CC4)CC1 [Compound I-76, 2-[[(3S)-12-[[4-(dimethylamino)cyclohexyl]oxy]-7-thia-9,11-diazatricyclo[6.4.0.0[2,6]]dodeca-1(8),2(6),9,11-tetraen-3-yl]methoxy]acetamide] | – | – | < 5
9 | OC[C@@H]1CCc2sc3ncnc(N[C@H]4CC[C@H](N5CCOCC5)CC4)c3c2C1 [Compound I-211, [(12R)-3-[[4-(morpholin-4-yl)cyclohexyl]amino]-8-thia-4,6-diazatricyclo[7.4.0.0[2,7]]trideca-1(9),2,4,6-tetraen-12-yl]methanol] | – | – | < 5
10 | NC(=O)C[C@H]1CCc2sc3ncnc(O[C@H]4CC[C@H](N5CC6(COC6)C5)CC4)c3c21 [Compound I-152, 2-[(3R)-12-[(4-[2-oxa-6-azaspiro[3.3]heptan-6-yl]cyclohexyl)oxy]-7-thia-9,11-diazatricyclo[6.4.0.0[2,6]]dodeca-1(8),2(6),9,11-tetraen-3-yl]acetamide] | – | – | < 5
11 | CN[C@H]1CC[C@H](Oc2ncnc3sc4c(c23)[C@@H](C[C@@H](C#N)OC)CC4)CC1 [Compound I-80, (2S)-2-methoxy-3-[(3R)-12-[[4-(methylamino)cyclohexyl]oxy]-7-thia-9,11-diazatricyclo[6.4.0.0[2,6]]dodeca-1(8),2(6),9,11-tetraen-3-yl]propanenitrile] | – | – | < 5
12 | OC[C@H]1CCc2sc3ncnc(O[C@H]4CC[C@H](N5CCOCC5)CC4)c3c2C1 [Compound I-216, [(12S)-3-[[4-(morpholin-4-yl)cyclohexyl]oxy]-8-thia-4,6-diazatricyclo[7.4.0.0[2,7]]trideca-1(9),2(7),3,5-tetraen-12-yl]methanol] | – | – | < 5
13 | NC(=O)C[C@H]1CCc2sc3ncnc(N[C@H]4CC[C@H](N5CCOCC5)CC4)c3c21 [Compound I-97, 2-[(3R)-12-[[4-(morpholin-4-yl)cyclohexyl]amino]-7-thia-9,11-diazatricyclo[6.4.0.0̂[2,6]]dodeca-1(12),2(6),8,10-tetraen-3-yl]acetamide] | – | – | < 5
14 | CNC1CCC(Oc2ncnc3sc4c(c23)[C@@H](C[C@H](N)C(N)=O)CC4)CC1 (stereo partly drawn) [Compound I-146, (2S)-2-amino-3-[(3R)-12-[[4-(methylamino)cyclohexyl]oxy]-7-thia-9,11-diazatricyclo[6.4.0.0[2,6]]dodeca-1(8),2(6),9,11-tetraen-3-yl]propanamide] | – | – | < 5
15 | C/C=C/COC[C@H]1CCc2sc3ncnc(O[C@H]4CC[C@H](N(C)C)CC4)c3c21 [Compound I-59, 4-[[(3S)-3-[[(2E)-but-2-en-1-yloxy]methyl]-7-thia-9,11-diazatricyclo[6.4.0.0[2,6]]dodeca-1(8),2(6),9,11-tetraen-12-yl]oxy]-N,N-dimethylcyclohexan-1-amine] | – | – | < 5
16 | C[C@@H](O)C[C@H]1CCc2sc3ncnc(O[C@H]4CC[C@H](N(C)C)CC4)c3c21 [Compound I-41, (2R)-1-[(3R)-12-[[4-(dimethylamino)cyclohexyl]oxy]-7-thia-9,11-diazatricyclo[6.4.0.0[2,6]]dodeca-1(8),2(6),9,11-tetraen-3-yl]propan-2-ol] | – | – | < 5
17 | CN(C)[C@H]1CC[C@H](Oc2ncnc3sc4c(c23)[C@H](CCO)CC4)CC1 [Compound I-33, 2-[(3S)-12-[[4-(dimethylamino)cyclohexyl]oxy]-7-thia-9,11-diazatricyclo[6.4.0.0[2,6]]dodeca-1(12),2(6),8,10-tetraen-3-yl]ethan-1-ol] | – | – | < 5
18 | CN[C@H]1CC[C@H](Oc2ncnc3sc4c(c23)[C@@H](C[C@@H](O)C(N)=O)CC4)CC1 [Compound I-140, (2R)-2-hydroxy-3-[(3R)-12-[[4-(methylamino)cyclohexyl]oxy]-7-thia-9,11-diazatricyclo[6.4.0.0[2,6]]dodeca-1(8),2(6),9,11-tetraen-3-yl]propanamide] | – | – | < 5
19 | NC(=O)C(O)C[C@H]1CCc2sc3ncnc(N[C@H]4CC[C@H](N5CCOCC5)CC4)c3c21 (mixture of isomers) [Compound I-118, 2-hydroxy-3-((R)-4-(((1r,4R)-4-morpholinocyclohexyl)amino)-6,7-dihydro-5H-cyclopenta[4,5]thieno[2,3-d]pyrimidin-5-yl)propanamide] | – | – | < 5
20 | CN(C)[C@H]1CC[C@H](Nc2ncnc3sc4c(c23)C(CC#N)CC4)CC1 (some centres unmarked) [Compound I-9] | – | – | < 5
21 | CN(C)[C@H]1CC[C@H](Nc2ncnc3sc4c(c23)C(CC(=O)N2CC[C@@H](O)C2)CC4)CC1 (stereo partly drawn) [Compound I-16, 2-(4-(((1r,4R)-4-(dimethylamino)cyclohexyl)amino)-6,7-dihydro-5H-cyclopenta[4,5]thieno[2,3-d]pyrimidin-5-yl)-1-((R)-3-hydroxypyrrolidin-1-yl)ethanone] | – | – | > 50
22 | CN(C)[C@H]1CC[C@H](Nc2ncnc3sc4c(c23)C(CC(N)=O)CC4)CC1 (some centres unmarked) [Compound I-13, 2-(4-(((1r,4r)-4-(dimethylamino)cyclohexyl)amino)-6,7-dihydro-5H-cyclopenta[4,5]thieno[2,3-d]pyrimidin-5-yl)acetamide] | – | – | < 5
23 | COC(=O)CC1CCc2sc3ncnc(N[C@H]4CC[C@H](N(C)C)CC4)c3c21 (some centres unmarked) [Compound I-11] | – | – | 5 to 20
24 | CN(C)[C@H]1CC[C@H](Oc2ncnc3sc4c(c23)CN(S(N)(=O)=O)CC4)CC1 [Compound I-238, 3-[[4-(dimethylamino)cyclohexyl]oxy]-8-thia-4,6, 12-triazatricyclo[7.4.0.0[2,7]]trideca-1(9),2(7),3,5-tetraene-12-sulfonamide] | – | – | < 5
